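Following 48 hours of exposure in 96-well plates, responses at five concentrations were used to interpolate endpoints linearly. GI50 is the concentration that inhibits growth by half. The concentration for full growth arrest is given as TGI.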
Columns and labels:
Experiment in all cases: inhibition of tumour cell growth, NCI panel, 48 h
SF-539 CNS = tested on: SF-539 CNS
SNB-19 CNS = tested on: SNB-19 CNS
A549 NSCLC = tested on: A549 NSCLC
SNB-75 CNS = tested on: SNB-75 CNS
HCT-116 colon = tested on: HCT-116 colon
ACHN renal = tested on: ACHN renal
SW-620 colon = tested on: SW-620 colon
T-47D breast = tested on: T-47D breast
PC-3 prostate = tested on: PC-3 prostate
CCRF-CEM leukemia = tested on: CCRF-CEM leukemia
K-562 leukemia = tested on: K-562 leukemia
SR leukemia = tested on: SR leukemia
OVCAR-5 ovarian = tested on: OVCAR-5 ovarian
MDA-MB-435 = tested on: MDA-MB-435
SK-MEL-5 melanoma = tested on: SK-MEL-5 melanoma
NCI/ADR-RES ovarian = tested on: NCI/ADR-RES ovarian
MOLT-4 leukemia = tested on: MOLT-4 leukemia
SK-OV-3 ovarian = tested on: SK-OV-3 ovarian
SF-295 CNS = tested on: SF-295 CNS
HL-60(TB) leukemia = tested on: HL-60(TB) leukemia
MCF7 breast = tested on: MCF7 breast
COLO 205 colon = tested on: COLO 205 colon
IGROV1 ovarian = tested on: IGROV1 ovarian
NCI-H522 lung = tested on: NCI-H522 lung
SK-MEL-28 melanoma = tested on: SK-MEL-28 melanoma
HOP-62 NSCLC = tested on: HOP-62 NSCLC
TK-10 renal = tested on: TK-10 renal
EKVX NSCLC = tested on: EKVX NSCLC
UACC-257 melanoma = tested on: UACC-257 melanoma
SF-268 CNS = tested on: SF-268 CNS
786-0 renal = tested on: 786-0 renal
OVCAR-8 ovarian = tested on: OVCAR-8 ovarian
MDA-N = tested on: MDA-N
HCT-15 colon = tested on: HCT-15 colon
UO-31 renal = tested on: UO-31 renal
HCC-2998 colon = tested on: HCC-2998 colon
MDA-MB-231 breast = tested on: MDA-MB-231 breast
RPMI-8226 leukemia = tested on: RPMI-8226 leukemia
U251 CNS = tested on: U251 CNS
HS 578T breast = tested on: HS 578T breast
M14 melanoma = tested on: M14 melanoma
NCI-H460 lung = tested on: NCI-H460 lung
KM12 colon = tested on: KM12 colon
OVCAR-4 ovarian = tested on: OVCAR-4 ovarian
SN12C renal = tested on: SN12C renal
SK-MEL-2 melanoma = tested on: SK-MEL-2 melanoma
HT29 colon = tested on: HT29 colon
LOX IMVI melanoma = tested on: LOX IMVI melanoma
OVCAR-3 ovarian = tested on: OVCAR-3 ovarian
UACC-62 melanoma = tested on: UACC-62 melanoma
A498 renal = tested on: A498 renal
DU-145 prostate = tested on: DU-145 prostate
NCI-H23 lung = tested on: NCI-H23 lung
RXF 393 renal = tested on: RXF 393 renal
BT-549 breast = tested on: BT-549 breast
NCI-H226 lung = tested on: NCI-H226 lung
CAKI-1 renal = tested on: CAKI-1 renal
HOP-92 NSCLC = tested on: HOP-92 NSCLC
MALME-3M melanoma = tested on: MALME-3M melanoma

Structure (SMILES): COc1ccc2c3c([nH]c2c1)-c1nc2ccccc2c(=O)n1CC3
- TGI (SF-539 CNS): > 25 µM
- TGI (SNB-19 CNS): > 25 µM
- GI50 (A549 NSCLC): 0.754 µM
- TGI (A549 NSCLC): > 25 µM
- TGI (SNB-75 CNS): > 25 µM
- TGI (HCT-116 colon): > 25 µM
- TGI (ACHN renal): > 25 µM
- TGI (SW-620 colon): > 25 µM
- TGI (T-47D breast): > 25 µM
- TGI (PC-3 prostate): > 25 µM
- GI50 (CCRF-CEM leukemia): > 25 µM
- TGI (CCRF-CEM leukemia): > 25 µM
- TGI (K-562 leukemia): > 25 µM
- TGI (SR leukemia): > 25 µM
- TGI (OVCAR-5 ovarian): > 25 µM
- TGI (MDA-MB-435): > 25 µM
- TGI (SK-MEL-5 melanoma): > 25 µM
- TGI (NCI/ADR-RES ovarian): > 25 µM
- TGI (MOLT-4 leukemia): > 25 µM
- TGI (SK-OV-3 ovarian): > 25 µM
- TGI (SF-295 CNS): > 25 µM
- TGI (HL-60(TB) leukemia): > 25 µM
- TGI (MCF7 breast): > 25 µM
- TGI (COLO 205 colon): > 25 µM
- TGI (IGROV1 ovarian): > 25 µM
- TGI (NCI-H522 lung): > 25 µM
- TGI (SK-MEL-28 melanoma): > 25 µM
- TGI (HOP-62 NSCLC): > 25 µM
- TGI (TK-10 renal): > 25 µM
- TGI (EKVX NSCLC): > 25 µM
- TGI (UACC-257 melanoma): > 25 µM
- TGI (SF-268 CNS): > 25 µM
- TGI (786-0 renal): > 25 µM
- TGI (OVCAR-8 ovarian): > 25 µM
- TGI (MDA-N): > 25 µM
- TGI (HCT-15 colon): > 25 µM
- TGI (UO-31 renal): > 25 µM
- TGI (HCC-2998 colon): > 25 µM
- TGI (MDA-MB-231 breast): > 25 µM
- TGI (RPMI-8226 leukemia): > 25 µM
- TGI (U251 CNS): > 25 µM
- GI50 (HS 578T breast): 1.59 µM
- TGI (HS 578T breast): 10.6 µM
- TGI (M14 melanoma): > 25 µM
- GI50 (NCI-H460 lung): 1.38 µM
- TGI (NCI-H460 lung): > 25 µM
- TGI (KM12 colon): > 25 µM
- GI50 (OVCAR-4 ovarian): > 25 µM
- TGI (OVCAR-4 ovarian): > 25 µM
- TGI (SN12C renal): > 25 µM

Structure (SMILES): CC(C)(C)N1CCC1C(N)=O (stereo unspecified)
- GI50 (SF-539 CNS): > 100 µM
- TGI (SF-539 CNS): > 100 µM
- GI50 (SNB-19 CNS): > 100 µM
- TGI (SNB-19 CNS): > 100 µM
- GI50 (A549 NSCLC): > 100 µM
- TGI (A549 NSCLC): > 100 µM
- GI50 (SNB-75 CNS): > 100 µM
- TGI (SNB-75 CNS): > 100 µM
- GI50 (SK-MEL-2 melanoma): > 100 µM
- TGI (SK-MEL-2 melanoma): > 100 µM
- GI50 (HCT-116 colon): > 100 µM
- TGI (HCT-116 colon): > 100 µM
- GI50 (ACHN renal): > 100 µM
- TGI (ACHN renal): > 100 µM
- GI50 (HT29 colon): > 100 µM
- TGI (HT29 colon): > 100 µM
- GI50 (SW-620 colon): > 100 µM
- TGI (SW-620 colon): > 100 µM
- GI50 (T-47D breast): > 100 µM
- TGI (T-47D breast): > 100 µM
- GI50 (PC-3 prostate): > 100 µM
- TGI (PC-3 prostate): > 100 µM
- GI50 (CCRF-CEM leukemia): > 100 µM
- TGI (CCRF-CEM leukemia): > 100 µM
- GI50 (LOX IMVI melanoma): > 100 µM
- TGI (LOX IMVI melanoma): > 100 µM
- GI50 (K-562 leukemia): > 100 µM
- TGI (K-562 leukemia): > 100 µM
- GI50 (SR leukemia): > 100 µM
- TGI (SR leukemia): > 100 µM
- GI50 (OVCAR-3 ovarian): > 100 µM
- TGI (OVCAR-3 ovarian): > 100 µM
- GI50 (UACC-62 melanoma): > 100 µM
- TGI (UACC-62 melanoma): > 100 µM
- GI50 (OVCAR-5 ovarian): > 100 µM
- TGI (OVCAR-5 ovarian): > 100 µM
- GI50 (MDA-MB-435): > 100 µM
- TGI (MDA-MB-435): > 100 µM
- GI50 (SK-MEL-5 melanoma): > 100 µM
- TGI (SK-MEL-5 melanoma): > 100 µM
- GI50 (A498 renal): > 100 µM
- TGI (A498 renal): > 100 µM
- GI50 (NCI/ADR-RES ovarian): > 100 µM
- TGI (NCI/ADR-RES ovarian): > 100 µM
- GI50 (MOLT-4 leukemia): > 100 µM
- TGI (MOLT-4 leukemia): > 100 µM
- GI50 (SK-OV-3 ovarian): > 100 µM
- TGI (SK-OV-3 ovarian): > 100 µM
- GI50 (SF-295 CNS): > 100 µM
- TGI (SF-295 CNS): > 100 µM
- GI50 (HL-60(TB) leukemia): > 100 µM
- TGI (HL-60(TB) leukemia): > 100 µM
- GI50 (DU-145 prostate): > 100 µM
- TGI (DU-145 prostate): > 100 µM
- GI50 (MCF7 breast): > 100 µM
- TGI (MCF7 breast): > 100 µM
- GI50 (NCI-H23 lung): > 100 µM
- TGI (NCI-H23 lung): > 100 µM
- GI50 (RXF 393 renal): > 100 µM
- TGI (RXF 393 renal): > 100 µM
- GI50 (BT-549 breast): > 100 µM
- TGI (BT-549 breast): > 100 µM
- GI50 (COLO 205 colon): > 100 µM
- TGI (COLO 205 colon): > 100 µM
- GI50 (IGROV1 ovarian): > 100 µM
- TGI (IGROV1 ovarian): > 100 µM
- GI50 (NCI-H226 lung): > 100 µM
- TGI (NCI-H226 lung): > 100 µM
- GI50 (NCI-H522 lung): > 100 µM
- TGI (NCI-H522 lung): > 100 µM
- GI50 (SK-MEL-28 melanoma): > 100 µM
- TGI (SK-MEL-28 melanoma): > 100 µM
- GI50 (HOP-62 NSCLC): > 100 µM
- TGI (HOP-62 NSCLC): > 100 µM
- GI50 (CAKI-1 renal): > 100 µM
- TGI (CAKI-1 renal): > 100 µM
- GI50 (TK-10 renal): > 100 µM
- TGI (TK-10 renal): > 100 µM
- GI50 (EKVX NSCLC): > 100 µM
- TGI (EKVX NSCLC): > 100 µM
- GI50 (UACC-257 melanoma): > 100 µM
- TGI (UACC-257 melanoma): > 100 µM
- GI50 (SF-268 CNS): > 100 µM
- TGI (SF-268 CNS): > 100 µM
- GI50 (786-0 renal): > 100 µM
- TGI (786-0 renal): > 100 µM
- GI50 (OVCAR-8 ovarian): > 100 µM
- TGI (OVCAR-8 ovarian): > 100 µM
- GI50 (HCT-15 colon): > 100 µM
- TGI (HCT-15 colon): > 100 µM
- GI50 (UO-31 renal): > 100 µM
- TGI (UO-31 renal): > 100 µM
- GI50 (HCC-2998 colon): > 100 µM
- TGI (HCC-2998 colon): > 100 µM
- GI50 (HOP-92 NSCLC): > 100 µM
- TGI (HOP-92 NSCLC): > 100 µM
- GI50 (MDA-MB-231 breast): > 100 µM
- TGI (MDA-MB-231 breast): > 100 µM
- GI50 (RPMI-8226 leukemia): > 100 µM
- TGI (RPMI-8226 leukemia): > 100 µM
- GI50 (U251 CNS): > 100 µM
- TGI (U251 CNS): > 100 µM
- GI50 (HS 578T breast): > 100 µM
- TGI (HS 578T breast): > 100 µM
- GI50 (MALME-3M melanoma): > 100 µM
- TGI (MALME-3M melanoma): > 100 µM
- GI50 (M14 melanoma): > 100 µM
- TGI (M14 melanoma): > 100 µM
- GI50 (NCI-H460 lung): > 100 µM
- TGI (NCI-H460 lung): > 100 µM
- GI50 (KM12 colon): > 100 µM
- TGI (KM12 colon): > 100 µM
- GI50 (OVCAR-4 ovarian): > 100 µM
- TGI (OVCAR-4 ovarian): > 100 µM
- GI50 (SN12C renal): > 100 µM
- TGI (SN12C renal): > 100 µM

Reference: PubChem BioAssay (NCI)
